# Experimental data: US10487086
# Details: from C=CCCC(=O)Nc1cc(NC(=O)OC)ccc1-c1nnc(Cl)cc1C(CC=C)NC(=O)OC(C)(C)C; rcm bond; 12-membered ring; Grubbs II (0.3 eq); DCM; 6.6 mM; 40.0 °C; 1.0 h
structure (smiles),measurement,value
COC(=O)Nc1ccc2c(c1)NC(=O)CCC=CCC(NC(=O)OC(C)(C)C)c1cc(Cl)nnc1-2 (stereo not shown),"ring closure, isolated yield",56%
